31 molecules from patent publication US20240246946A1, “MODULATORS OF TREX1” (Constellation Pharmaceuticals, Inc., priority 2021, published 2024) can be followed below.

Molecules are shown by their SMILES. Like-named read-outs stand apart in the source and are kept apart here.

The target of one experiment is T1, full length human TREX1 (Homo sapiens, UniProt Q9NSU2).
T1 construct: N-terminally His-Tev tagged full length human TREX1; made in house; host or cells: E. coli
T1 sequence (Q9NSU2 1-314): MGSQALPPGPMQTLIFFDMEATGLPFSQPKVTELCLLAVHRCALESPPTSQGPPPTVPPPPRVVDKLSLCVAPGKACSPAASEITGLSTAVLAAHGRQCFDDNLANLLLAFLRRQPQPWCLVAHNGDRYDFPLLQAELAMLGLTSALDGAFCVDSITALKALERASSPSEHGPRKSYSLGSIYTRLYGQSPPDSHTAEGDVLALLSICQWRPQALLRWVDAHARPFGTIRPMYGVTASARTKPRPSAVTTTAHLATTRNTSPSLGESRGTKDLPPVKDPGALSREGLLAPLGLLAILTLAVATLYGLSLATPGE
As to the kind of experiment: hTREX1 Biochemical Assay (fluorescence, dsDNA substrate degradation). How it is done:
(§1) Degradation of the dsDNA liberates free fluorophore to produce a fluorescent signal. Specifically, 7.5 μL of N-terminally His-Tev tagged full length human TREX1 (expressed in E. coli and purified in house) in reaction buffer (50 mM Tris, 150 mM NaCl, 2 mM DTT, 0.1 mg/mL BSA, 0.01% (w/v) Tween-20, 5 mM MgCl2, pH 7.4) was added to a 384-well Black ProxiPlate Plus (PerkinElmer) which already contained compound (150 nL) at varying concentrations as a 10 point dose-response in DMSO. The plate was incubated at 25° C. for 4 hours. Reactions were initiated by adding 7.5 μL of dsDNA substrate (Strand A: 5′ TEX615/GCT AGG CAG 3′; Strand B: 5′ CTG CCT AGC/IAbRQSp (Integrated DNA Technologies)) in reaction buffer. Final concentrations were 4 pM TREX1, 60 nM dsDNA substrate in reaction buffer with 1.0% DMSO (v/v). After 18 hours at 25° C., reactions were quenched by the addition of 2 μL of 500 mM EDTA.

The target of a further experiment is T2, full length mouse TREX1 (Mus musculus, UniProt Q91XB0).
T2 construct: N-terminally His-Tev tagged full length mouse TREX1; made in house; host or cells: E. coli
T2 sequence (Q91XB0 1-314): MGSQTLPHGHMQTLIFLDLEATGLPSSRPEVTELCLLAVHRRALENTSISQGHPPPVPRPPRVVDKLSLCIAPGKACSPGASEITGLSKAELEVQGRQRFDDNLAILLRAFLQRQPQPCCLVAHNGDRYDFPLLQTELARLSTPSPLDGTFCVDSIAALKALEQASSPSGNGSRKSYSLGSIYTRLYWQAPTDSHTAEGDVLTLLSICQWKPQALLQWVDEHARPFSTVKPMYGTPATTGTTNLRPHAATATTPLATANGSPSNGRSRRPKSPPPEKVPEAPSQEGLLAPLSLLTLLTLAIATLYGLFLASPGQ
As to the kind of experiment: mTREX1 Biochemical Assay (fluorescence, dsDNA substrate degradation). The method, then:
as §1, with “length mouse” for “length human”, “were 6” for “were 4”

[1] abbreviates: biochemical, read-out: hTREX1 IC50.
The mark [2] stands for this setting: biochemical, read-out: mTREX1 IC50.

For the molecule `Cc1cn(C)nc1C(c1ccccc1C#N)C(C)c1nc(C(=O)Nc2cnoc2)c(O)c(=O)n1C` (single isomer, unassigned) [Example 64 D2E2], the IC50 on full length human TREX1 (setting [1]) and at full length mouse TREX1 (setting [2]) was over 10 nM each time.

Regarding `CC(c1nc(C(=O)Nc2cnoc2)c(O)c(=O)n1C)C(c1cnn(C)c1)c1c(C#N)cccc1C#N` (single isomer, unassigned) [Example 19 D1E1], the IC50 on full length human TREX1 (setting [1]) and on full length mouse TREX1 (setting [2]) was over 10 nM each time.

Consider `COCCn1ncc(C(c2ccccc2C#N)C(C)c2nc(C(=O)Nc3cnoc3)c(O)c(=O)n2C)c1C` (single isomer, unassigned) [Example 69 D2E1], for which the IC50 at full length human TREX1 (setting [1]) and on full length mouse TREX1 (setting [2]) was over 10 nM each time.

Consider `COCCCn1cc(C(c2ccccc2C#N)C(C)c2nc(C(=O)Nc3cnoc3)c(O)c(=O)n2C)cn1` (single isomer, unassigned) [Example 24 D1E2], for which the half-inhibitory concentration (IC50) on full length human TREX1 (setting [1]) and at full length mouse TREX1 (setting [2]) was over 10 nM in each case.

Regarding `COCCn1cc(C(c2ccccc2C#N)C(C)c2nc(C(=O)Nc3cnoc3)c(O)c(=O)n2C)cn1` (single isomer, unassigned) [Example 9 D2E2], the concentration for half-maximal inhibition (IC50) at full length human TREX1 (setting [1]) and at full length mouse TREX1 (setting [2]) was over 10 nM throughout.

Consider `CC(=O)N(C)c1nn(C)cc1C(c1ccccc1C#N)C(C)c1nc(C(=O)Nc2cnoc2)c(O)c(=O)n1C` (single isomer, unassigned) [Example 153 D1E1], for which the half-maximal inhibitory concentration (IC50) on full length human TREX1 (setting [1]) and at full length mouse TREX1 (setting [2]) was over 10 nM in each case.

Regarding `CC(c1nc(C(=O)Nc2cnoc2)c(O)c(=O)n1C)C(c1cnn(C)c1)c1cc(Cl)ccc1C#N` (single isomer, unassigned) [Example 26 D1E1], the IC50 on full length human TREX1 (setting [1]) and on full length mouse TREX1 (setting [2]) was over 10 nM each time.

In the case of `CC(c1nc(C(=O)Nc2cnoc2)c(O)c(=O)n1C)C(c1cnn(C)c1)c1cc(F)ccc1Cl` (single isomer, unassigned) [Example 61 D1E2], the IC50 at full length human TREX1 (setting [1]) and at full length mouse TREX1 (setting [2]) was over 10 nM in each case.

On to `CC(c1nc(C(=O)Nc2cnoc2)c(O)c(=O)n1C)C(c1cnn(C)c1)c1cc(F)ccc1C#N` (single isomer, unassigned) [Example 14 D2E2], for which the half-maximal inhibitory concentration (IC50) at full length human TREX1 (setting [1]) and on full length mouse TREX1 (setting [2]) was over 10 nM in each case.

Take `CC(c1nc(C(=O)Nc2cnoc2)c(O)c(=O)n1C)C(c1cnn(CC(C)(C)O)c1)c1ccccc1C#N` (single isomer, unassigned) [Example 36 D2E2]: the IC50 on full length human TREX1 (setting [1]) and on full length mouse TREX1 (setting [2]) was over 10 nM throughout.

`CC(c1nc(C(=O)Nc2cnoc2)c(O)c(=O)n1C)C(c1cnn(C(F)F)c1)c1ccccc1C#N` (single isomer, unassigned) [Example 38 D1E2]: the IC50 at full length human TREX1 (setting [1]) and at full length mouse TREX1 (setting [2]) was over 10 nM in each case.

As to `CCn1cc(C(c2ccccc2C#N)C(C)c2nc(C(=O)Nc3cnoc3)c(O)c(=O)n2C)c(C)n1` (single isomer, unassigned) [Example 70 D2E2], the concentration for half-maximal inhibition (IC50) on full length human TREX1 (setting [1]) and on full length mouse TREX1 (setting [2]) was over 10 nM throughout.

Take `CC(c1nc(C(=O)Nc2cnoc2)c(O)c(=O)n1C)C(c1cnn(CC(C)(C)O)c1)c1ccccc1C#N` (single isomer, unassigned) [Example 36 D1E2]: the IC50 at full length human TREX1 (setting [1]) and on full length mouse TREX1 (setting [2]) was over 10 nM in each case.

Consider `CC(c1nc(C(=O)Nc2cnoc2)c(O)c(=O)n1C)C(c1cnn(C)c1)c1ccccc1C#N` (single isomer, unassigned) [Example 2 D2E1], for which the concentration for half-maximal inhibition (IC50) at full length human TREX1 (setting [1]) and on full length mouse TREX1 (setting [2]) was over 10 nM throughout.

Regarding `CC(c1nc(C(=O)Nc2cnoc2)c(O)c(=O)n1C)C(c1cnn(C)c1)c1cc(F)c(F)cc1Cl` (single isomer, unassigned) [Example 28 D2E1], the 50% inhibitory concentration (IC50) on full length human TREX1 (setting [1]) and at full length mouse TREX1 (setting [2]) was over 10 nM each time.

`CCn1cc(C(c2ccc(F)cc2C#N)C(C)c2nc(C(=O)Nc3cnoc3)c(O)c(=O)n2C)cn1` (single isomer, unassigned) [Example 16 D2E2]: the IC50 on full length human TREX1 (setting [1]) and at full length mouse TREX1 (setting [2]) was over 10 nM in each case.

In the case of `CCn1cc(C(c2ccc(F)cc2C#N)C(C)c2nc(C(=O)Nc3cnoc3)c(O)c(=O)n2C)cn1` (single isomer, unassigned) [Example 16 D2E1], the IC50 at full length human TREX1 (setting [1]) and on full length mouse TREX1 (setting [2]) was over 10 nM each time.

`CC(c1nc(C(=O)Nc2cnoc2)c(O)c(=O)n1C)C(c1cnn(CCN2CCOCC2)c1)c1ccccc1C#N` (single isomer, unassigned) [Example 20 D2E2]: the IC50 at full length human TREX1 (setting [1]) and at full length mouse TREX1 (setting [2]) was over 10 nM throughout.

As for `Cc1ccnn1C(c1ccccc1Cl)C(C)c1nc(C(=O)Nc2cnoc2)c(O)c(=O)n1C` (single isomer, unassigned) [Example 54 D1E1], the half-maximal inhibitory concentration (IC50) on full length human TREX1 (hTREX1 IC50, biochemical) lay in the range of 1 to 10 nM; on full length mouse TREX1 (mTREX1 IC50, biochemical), 1 to 10 nM.

As to `CC(c1nc(C(=O)Nc2cnoc2)c(O)c(=O)n1C)C(c1cnn(CCO)c1)c1ccccc1C#N` (single isomer, unassigned) [Example 35 D2E1], the half-inhibitory concentration (IC50) was 1 to 10 nM at full length human TREX1 (setting [1]) and over 10 nM at full length mouse TREX1 (setting [2]).

Consider `CC(c1nc(C(=O)Nc2cnoc2)c(O)c(=O)n1C)C(c1cnn(CCN2CCN(C(=O)OC(C)(C)C)CC2)c1)c1ccccc1C#N` (single isomer, unassigned) [Example 21 D2E2], for which the IC50 at full length human TREX1 (setting [1]) and at full length mouse TREX1 (setting [2]) was over 10 nM each time.

Turning to `CC(c1nc(C(=O)Nc2cnoc2)c(O)c(=O)n1C)C(c1ccccc1C#N)c1nnnn1C` (single isomer, unassigned) [Example 131 D1E2], the 50% inhibitory concentration (IC50) at full length human TREX1 (setting [1]) and on full length mouse TREX1 (setting [2]) was over 10 nM each time.

In the case of `CC(c1nc(C(=O)Nc2cnoc2)c(O)c(=O)n1C)C(c1cnn(C)c1)c1cc(F)ccc1Cl` (single isomer, unassigned) [Example 61 D2E2], the IC50 on full length human TREX1 (setting [1]) and at full length mouse TREX1 (setting [2]) was over 10 nM each time.

Consider `CC(c1nc(C(=O)Nc2cnoc2)c(O)c(=O)n1C)C(c1ncn(C)n1)c1ccccc1C#N` (single isomer, unassigned) [Example 51 D1E1], for which the IC50 on full length human TREX1 (setting [1]) and on full length mouse TREX1 (setting [2]) was over 10 nM each time.

`CC(c1nc(C(=O)Nc2cnoc2)c(O)c(=O)n1C)C(c1cnccn1)c1ccccc1C#N` (single isomer, unassigned) [Example 66 D1E2]: the half-maximal inhibitory concentration (IC50) on full length human TREX1 (setting [1]) is 1 to 10 nM; on full length mouse TREX1 (setting [2]), over 10 nM.

For `Cc1nn(C)cc1C(c1cc(F)ccc1C#N)C(C)c1nc(C(=O)Nc2cnoc2)c(O)c(=O)n1C` (single isomer, unassigned) [Example 57 D2E2], the half-inhibitory concentration (IC50) at full length human TREX1 (setting [1]) and at full length mouse TREX1 (setting [2]) was over 10 nM throughout.

Take `CC(c1nc(C(=O)Nc2cnoc2)c(O)c(=O)n1C)C(c1cnn(C)c1)c1cc(F)ccc1C#N` (single isomer, unassigned) [Example 14 D1E1]: the IC50 on full length human TREX1 (setting [1]) and on full length mouse TREX1 (setting [2]) was over 10 nM throughout.

In the case of `CCn1cc(C(c2ccc(F)cc2C#N)C(C)c2nc(C(=O)Nc3cnoc3)c(O)c(=O)n2C)cn1` (single isomer, unassigned) [Example 16 D1E2], the 50% inhibitory concentration (IC50) on full length human TREX1 (setting [1]) and at full length mouse TREX1 (setting [2]) was over 10 nM each time.

`COCCn1ncc(C(c2ccccc2C#N)C(C)c2nc(C(=O)Nc3cnoc3)c(O)c(=O)n2C)c1C` (single isomer, unassigned) [Example 69 D1E2]: the IC50 at full length human TREX1 (setting [1]) and on full length mouse TREX1 (setting [2]) was over 10 nM in each case.

Regarding `CC(c1nc(C(=O)Nc2cnoc2)c(O)c(=O)n1C)C(c1cnn(CCN(C)C)c1)c1ccccc1C#N` (single isomer, unassigned) [Example 33 D2E2], the IC50 on full length human TREX1 (setting [1]) and on full length mouse TREX1 (setting [2]) was over 10 nM each time.

Turning to `Cc1cn(C)nc1C(c1ccccc1C#N)C(C)c1nc(C(=O)Nc2cnoc2)c(O)c(=O)n1C` (single isomer, unassigned) [Example 64 D1E2], the IC50 at full length human TREX1 (setting [1]) and at full length mouse TREX1 (setting [2]) was over 10 nM in each case.

One may read the IC50 as the midpoint of a concentration-inhibition curve.
